Assay [1] concerns conscious renal hypertensive dogs. Kind of assay: Lercanidipine and enalapril in renal hypertensive dogs (two-kidney, two clip). The format is in vivo, beagle dogs. The method, then: Male beagle dogs, 10-12 months old and weighing between 10-11 kg, were used. All dogs were trained for several weeks, to comply unstressfully to the test environment. Chronic sustained hypertension was induced in 4 dogs by bilateral renal artery constriction, according to the Goldblatt method “two-kidney, two clip hypertension”. Briefly, under sodium pentobarbital anaesthesia (35 mg/kg i.v.) during two different surgical interventions 15 days apart from each other, in sterile conditions, both renal arteries were clipped with original renal silver clips and narrowed by about 60-70%. After two months from the last intervention, an experimental renal hypertension was produced and the animals were used for the implantation of catheter.
Under sodium pentobarbital anaesthesia (35 mg/kg i.v.), in sterile conditions, the dogs were catheterized by inserting a sensor tipped catheter (Mikro-Tip) into the ascending aorta through the right femoral artery. The catheter was subcutaneously exteriorized at the back of the neck.
After a week recovery time from surgery, the animals were placed in a dog restrained unit, composed by a frame and a dog sling hammock, and connected to the pressure transducers in order to monitor the arterial blood pressure.
All the animals were alternatively treated with vehicle, lercanidipine, enalapril and the combination of lercanidipine and enalapril. The drugs were administered by oral gavage in a volume of 1 ml/kg at the following dosages:
(2) lercanidipine (0.5 mg/kg)
(4) lercanidipine […] enalapril (0.5 mg/kg +3 mg/kg)
Blood pressure (systolic and diastolic) was monitored up to 6 h after the administration. Statistical analysis was performed from time 0 to time 360 min. To evaluate the statistical differences among the treatments, data were analyzed using a three-way ANOVA with repeated measures on factor time and pre-planned multiple comparisons. Statistical analysis was performed by means of GLM (general linear model procedure) with SAS software version 6.12.

Assay [2] deals with isolated rat aorta. The settings on record: in vitro; even after the drug has been removed for 6 hours; cited from earlier work.
[3] abbreviates: enalapril 3 mg/kg oral, 120 min.
Setting [4] is: enalapril 3 mg/kg oral, 150 min.
[5] abbreviates: enalapril 3 mg/kg oral, 180 min.
Setting [6] is: enalapril 3 mg/kg oral, 240 min.
The mark [7] stands for this setting: enalapril 3 mg/kg oral, 360 min.
The mark [8] stands for this setting: lercanidipine 0.5 mg/kg oral, 15 min.
Where [9] appears, read: lercanidipine 0.5 mg/kg oral, 30 min.
Setting [10] is: lercanidipine 0.5 mg/kg oral, 45 min.
The mark [11] stands for this setting: lercanidipine 0.5 mg/kg oral, 60 min.
Setting [12] is: lercanidipine 0.5 mg/kg oral, 90 min.
Setting [13] is: lercanidipine 0.5 mg/kg oral, 120 min.
Where [14] appears, read: lercanidipine 0.5 mg/kg oral, 150 min.
[15] abbreviates: lercanidipine 0.5 mg/kg oral, 180 min.
[16] abbreviates: lercanidipine 0.5 mg/kg oral, 240 min.
The mark [17] stands for this setting: lercanidipine 0.5 mg/kg oral, 360 min.
[18] abbreviates: lercanidipine 0.5 mg/kg oral, Basal.

Structures are written as SMILES.

For the compound `CCOC(=O)[C@H](CCc1ccccc1)N[C@@H](C)C(=O)N1CCC[C@H]1C(=O)O` [enalapril, (S)-1-[N-1-(ethoxycarbonyl)-3-phenylpropyl]-L-alanyl-L-proline], the “DBP (diastolic blood pressure)” value is 114.5 ± 4.9 mmHg in assay [1] (enalapril 3 mg/kg oral, 15 min); 114.0 ± 4.7 mmHg in assay [1] (enalapril 3 mg/kg oral, 30 min); 110.3 ± 4.7 mmHg in assay [1] (enalapril 3 mg/kg oral, 45 min); 105.3 ± 5.6 a mmHg in assay [1] (enalapril 3 mg/kg oral, 60 min); 107.5 ± 3.2 mmHg in assay [1] (enalapril 3 mg/kg oral, 90 min); 105.0 ± 5.3 b mmHg in assay [1] (setting [3]). The “DBP (diastolic blood pressure)” value in assay [1] (setting [4]) is 108.3 ± 4.5 a mmHg; in assay [1] (setting [5]), 110.5 ± 3.6 mmHg; in assay [1] (setting [6]), 116.0 ± 3.3 mmHg; in assay [1] (setting [7]), 111.8 ± 4.3 mmHg; in assay [1] (enalapril 3 mg/kg oral, Basal), 120.0 ± 4.2 mmHg. Further, the “SBP (systolic blood pressure)” value is listed as 162.8 ± 4.8 mmHg in assay [1] (enalapril 3 mg/kg oral, 15 min); 160.3 ± 4.1 mmHg in assay [1] (enalapril 3 mg/kg oral, 30 min); 158.0 ± 5.6 mmHg in assay [1] (enalapril 3 mg/kg oral, 45 min); 158.0 ± 6.4 mmHg in assay [1] (enalapril 3 mg/kg oral, 60 min); 159.0 ± 5.8 mmHg in assay [1] (enalapril 3 mg/kg oral, 90 min); 153.5 ± 7.5 mmHg in assay [1] (setting [3]). The “SBP (systolic blood pressure)” value worked out at 158.5 ± 5.7 mmHg in assay [1] (setting [4]); 158.8 ± 5.5 mmHg in assay [1] (setting [5]); 161.3 ± 7.2 mmHg in assay [1] (setting [6]); 158.8 ± 5.9 mmHg in assay [1] (setting [7]); 164.8 ± 3.5 mmHg in assay [1] (enalapril 3 mg/kg oral, Basal).
In the case of `COC(=O)C1=C(C)NC(C)=C(C(=O)OC(C)(C)CN(C)CCC(c2ccccc2)c2ccccc2)C1c1cccc([N+](=O)[O-])c1` (stereo not drawn) [lercanidipine, methyl 1,1,N-trimethyl-N-(3,3-diphenylpropyl)-2-aminoethyl 1,4-dihydro-2,6-dimethyl-4-(3-nitrophenyl)pyridine-3,5-dicarboxylate], the “isolated rat aorta response to high K+” value in assay [2] is given as “attenuated”. Besides, the “DBP (diastolic blood pressure)” value in assay [1] (setting [8]) worked out at 107.0 ± 5.8 mmHg; in assay [1] (setting [9]), 95.3 ± 3.6 c mmHg; in assay [1] (setting [10]) it was 89.0 ± 4.8 c mmHg; in assay [1] (setting [11]), 87.5 ± 6.3 c mmHg; in assay [1] (setting [12]), 87.3 ± 5.3 c mmHg; in assay [1] (setting [13]), 93.0 ± 5.6 c mmHg. Moreover, the “DBP (diastolic blood pressure)” value is listed as 94.0 ± 7.2 c mmHg in assay [1] (setting [14]); 96.8 ± 5.1 c mmHg in assay [1] (setting [15]); 104.0 ± 5.0 a mmHg in assay [1] (setting [16]); 108.0 ± 3.5 mmHg in assay [1] (setting [17]); 117.5 ± 5.2 mmHg in assay [1] (setting [18]). The “SBP (systolic blood pressure)” value in assay [1] (setting [8]) turned out to be 152.5 ± 6.6 mmHg; in assay [1] (setting [9]) it was 142.5 ± 4.8 b mmHg; in assay [1] (setting [10]) it was 138.3 ± 5.1 c mmHg; in assay [1] (setting [11]), 142.3 ± 7.4 a mmHg; in assay [1] (setting [12]), 138.3 ± 5.7 c mmHg; in assay [1] (setting [13]), 140.5 ± 5.9 b mmHg. Besides, the “SBP (systolic blood pressure)” value in assay [1] (setting [14]) amounted to 139.3 ± 10.1 c mmHg; in assay [1] (setting [15]), 141.0 ± 7.2 b mmHg; in assay [1] (setting [16]), 144.8 ± 6.8 a mmHg; in assay [1] (setting [17]), 150.0 ± 6.8 mmHg; in assay [1] (setting [18]), 161.3 ± 3.8 mmHg.

The record behind these values is patent publication US20030180355A1, “Combination therapy for hypertension” (priority 2001, published 2003).
